Patent US8952150B2, “Prostaglandin transporter inhibitors and uses thereof” (Albert Einstein College of Medicine of Yeshiva University, priority 2009, dated 2015)

Target: rat PGT (Rattus norvegicus (Rat), UniProt Q00910)
Assay: [3H]PGE2 uptake inhibition in MDCK cells stably transfected with rat PGT (percent inhibition and IC50)
Format: cell-based
Conditions: for Inh (% of Ctl) 1 μM: 1 μM compound; for Inh (% of Ctl) 1 μM / Inh (% of Ctl) 10 μM / Inh (% of Ctl) 0.5 μM / Inh (% of Ctl) 2.5 μM / Inh (% of Ctl) 5 μM / Inh (% of Ctl) 0.1 μM: inhibition of [3H]PGE2 uptake; for Inh (% of Ctl) 10 μM: 10 μM compound; for Inh (% of Ctl) 0.5 μM: 0.5 μM compound; for Inh (% of Ctl) 2.5 μM: 2.5 μM compound; for Inh (% of Ctl) 5 μM: 5 μM compound; for Inh (% of Ctl) 0.1 μM: 0.1 μM compound; for IC50: [3H]PGE2 uptake, MDCK cells stably transfected with rat PGT
Experimental: MDCK cells stably transfected with rat PGT (Endo et al., 2002) were seeded at 15-20% confluence on 24-well plates. The day on which the cells were seeded was considered day 1. PGE2 uptake experiments were conducted on day 4. All of the PGE2 uptake experiments were conducted at room temperature. On day 4, cells were washed twice with Waymouth buffer (135 mM NaCl, 13 mM H-Hepes, 13 mM Na-Hepes, 2.5 mM CaCl2, 1.2 mM MgCl2, 0.8 mM MgSO4, 5 mM KCl, and 28 mM D-glucose). Then 200 μL of Waymouth buffer containing [^3H]PGE2 (purchased from Perkin Elmer) was added to each well. At the designed time, the uptake of [^3H]PGE2 was stopped by aspiration of uptake buffer; this was followed by immediate washing twice with 500 μL of chilled Waymouth buffer. Cells were then lysed with 100 μL lysis buffer containing 0.25% SDS and 0.05 N NaOH. 1.5 mL of scintillation solution was added to each well, and intracellular [^3H]PGE2 was counted by MicroBeta Counter.
For preliminary testing of the compounds, 20 μL of Waymouth buffer containing the compound was added to each well; this was immediately followed by the addition of 180 μL of Waymouth buffer containing [^3H]PGE2. In each well, the total volume of uptake medium was 200 μL. Organic compounds were first dissolved in EtOH and then diluted in Waymouth buffer. The percent inhibition of [^3H]PGE2 uptake by compounds was calculated as [(uptakevehicle−uptakeinhibitor)÷(uptakevehicle)]×100.
IC50 was calculated by fitting an equation of y=m1−m1*(m0/(m2+m0)).

| SMILES | Inh (% of Ctl) 1 μM | Inh (% of Ctl) 10 μM | Inh (% of Ctl) 0.5 μM | Inh (% of Ctl) 2.5 μM | Inh (% of Ctl) 5 μM | Inh (% of Ctl) 0.1 μM | IC50 |
| --- | --- | --- | --- | --- | --- | --- | --- |
| O=C(NCCOCCOCCNc1nc(Nc2ccccc2)nc(Nc2ccc(O)cc2)n1)c1ccncc1 [compound 29] | 15.9 % of Ctl | 49.6 % of Ctl | – | – | – | – | – |
| COc1ccc(C(=O)NCCOCCOCCNc2nc(Nc3ccccc3)nc(Nc3ccc(O)cc3)n2)cc1 [compound 32] | 29.0 % of Ctl | 71.0 % of Ctl | – | – | – | – | – |
| CCCCCCCC(=O)c1ccc(Nc2nc(NCCOCCOCCNC(=O)c3ccccc3)nc(Nc3ccc(O)cc3)n2)cc1 [compound 76] | – | – | 13.5 % of Ctl | 35.9 % of Ctl | 70.5 % of Ctl | – | – |
| O=C(NCCOCCOCCNc1nc(Nc2ccc(O)cc2)nc(Nc2ccc(C(=O)NCc3ccc(Cl)cc3)cc2)n1)c1ccccc1 [compound 91] | – | – | 72.1 % of Ctl | 84.0 % of Ctl | 88.0 % of Ctl | 60.8 % of Ctl | 620 nM |
| O=C(NCCOCCNc1nc(Nc2ccc(O)cc2)nc(Nc2ccc(C(=O)NCc3ccccc3)cc2)n1)c1ccc(F)cc1 [compound 136] | 77.9 % of Ctl | – | 64.1 % of Ctl | – | – | 33.3 % of Ctl | 23.9 nM |
| O=C(O)COCCOCCNc1nc(Nc2ccccc2)nc(Nc2ccc(O)cc2)n1 [compound 51] | 17.4 % of Ctl | 29.8 % of Ctl | – | – | – | – | – |
| O=C(NCCOCCOCCNc1nc(Nc2ccccc2)nc(Nc2ccc(OCc3ccccc3)cc2)n1)c1ccccc1 [compound 2] | – | – | 1.6 % of Ctl | – | 6.5 % of Ctl | – | – |
| O=S(=O)(NCCOCCOCCNc1nc(Nc2ccccc2)nc(Nc2ccc(O)cc2)n1)c1ccccc1 [compound 38] | 22.8 % of Ctl | 63.0 % of Ctl | – | – | – | – | – |
| CC(C)(C)NC(=O)c1ccc(Nc2nc(NCCOCCOCCNC(=O)c3ccccc3)nc(Nc3ccc(O)cc3)n2)cc1 [compound 16] | – | – | 11.8 % of Ctl | – | 44.8 % of Ctl | – | 9770 nM |
| O=C(NCCOCCOCCNc1nc(Nc2ccccc2)nc(Nc2ccc3cn[nH]c3c2)n1)c1ccccc1 [compound 75] | 8.4 % of Ctl | 12.5 % of Ctl | – | – | 10.1 % of Ctl | – | – |
| COC(=O)c1cc(Nc2nc(NCCOCCOCCNC(=O)c3ccccc3)nc(Nc3ccc(C(=O)NCc4ccc(F)cc4)cc3)n2)ccc1O [compound 144] | 10.8 % of Ctl | – | 5.8 % of Ctl | – | – | 3.4 % of Ctl | – |
| O=C(NCCOCCOCCNc1nc(Nc2ccc(O)cc2)nc(Nc2ccc(C(=O)NCc3ccc(F)cc3)cc2)n1)c1ccccc1 [compound 99] | – | – | 61.8 % of Ctl | 77.1 % of Ctl | 89.4 % of Ctl | 81.3 % of Ctl | 23.7 nM |
| O=C(NCCOCCOCCNc1nc(Nc2ccc(O)cc2)nc(Nc2ccc(C(=O)NCc3ccc(Cl)c(Cl)c3)cc2)n1)c1ccccc1 [compound 104] | – | – | 61.6 % of Ctl | 87.8 % of Ctl | 91.6 % of Ctl | 46.6 % of Ctl | – |
| O=C(NCCOCCOCCNc1nc(Nc2ccc(O)cc2)nc(Nc2ccc(C(=O)NCc3ccccc3)c(C(F)(F)F)c2)n1)c1ccccc1 [compound 82] | – | – | 2.1 % of Ctl | 5.0 % of Ctl | 47.6 % of Ctl | – | – |
| O=C(NCCOCCOCCNc1nc(Nc2ccc(C(=O)NCc3ccc(F)cc3)cc2)nc(Nc2ccc3[nH]cnc3c2)n1)c1ccccc1 [compound 142] | 39.2 % of Ctl | – | 20.1 % of Ctl | – | – | 8.4 % of Ctl | – |
| O=C(NCCOCCOCCNc1nc(Nc2ccc(O)cc2)nc(Nc2ccc(C(=O)NCc3cc(Cl)cc(Cl)c3)cc2)n1)c1ccccc1 [compound 108] | – | – | 60.8 % of Ctl | 78.3 % of Ctl | 76.6 % of Ctl | 70.3 % of Ctl | – |

| SMILES | Inh (% of Ctl) 1 μM | Inh (% of Ctl) 10 μM | Inh (% of Ctl) 0.5 μM | Inh (% of Ctl) 2.5 μM | Inh (% of Ctl) 5 μM | Inh (% of Ctl) 0.1 μM | IC50 |
| --- | --- | --- | --- | --- | --- | --- | --- |
| COc1ccc(Nc2nc(NCCOCCOCCNC(=O)c3ccccc3)nc(Nc3ccc(O)cc3)n2)cc1 [compound 23] | – | – | 14.4 % of Ctl | – | 38.4 % of Ctl | – | – |
| O=C(NCCOCCOCCNc1nc(Nc2ccc(O)cc2)nc(Nc2ccc(C(=O)NCc3cccnc3)cc2)n1)c1ccccc1 [compound 67] | – | – | 13.4 % of Ctl | – | 76.1 % of Ctl | – | – |
| O=C(NCCOCCOCCNc1nc(Nc2ccccc2)nc(Nc2ccc(O)cc2)n1)c1cc(F)cc(F)c1 [compound 35] | 20.4 % of Ctl | 75.6 % of Ctl | – | – | – | – | – |
| COC(=O)c1ccc(CNC(=O)c2ccc(Nc3nc(NCCOCCOCCNC(=O)c4ccccc4)nc(Nc4ccc(O)cc4)n3)cc2)cc1 [compound 114] | – | – | 61.4 % of Ctl | – | – | 41.0 % of Ctl | – |
| Cc1cccc(CNC(=O)c2ccc(Nc3nc(NCCOCCOCCNC(=O)c4ccccc4)nc(Nc4ccc(O)cc4)n3)cc2)c1 [compound 107] | – | – | 56.3 % of Ctl | 80.7 % of Ctl | 91.3 % of Ctl | 65.2 % of Ctl | – |
| O=C(NCCOCCO)c1ccc(Nc2nc(NCCOCCOCCNC(=O)c3ccccc3)nc(Nc3ccc(O)cc3)n2)cc1 [compound 18] | – | – | 21.1 % of Ctl | – | 48.9 % of Ctl | – | – |
| O=C(NCc1ccc(F)cc1)c1ccc(Nc2nc(Nc3ccc(O)cc3)nc(Nc3ccc(C(=O)NCc4ccc(F)cc4)cc3)n2)cc1 [compound 148] | 20.7 % of Ctl | – | 12.9 % of Ctl | – | – | 8.4 % of Ctl | – |
| O=C(NCCOCCOCCNc1nc(Nc2ccc(O)cc2)nc(Nc2ccc(C(=O)NCc3ccc(F)cc3F)cc2)n1)c1ccccc1 [compound 131] | 74.3 % of Ctl | – | 47.0 % of Ctl | – | – | 22.3 % of Ctl | – |
| CN(C)c1nc(NCCOCCOCCNC(=O)c2ccccc2)nc(Nc2ccc(O)cc2)n1 [compound 9] | – | – | 1.3 % of Ctl | – | 18.8 % of Ctl | – | – |
| O=C(NCCOCCOCCNc1nc(Nc2ccc(O)cc2)nc(Nc2ccc(C(=O)NCC3CCCCC3)cc2)n1)c1ccccc1 [compound 115] | – | – | 76.8 % of Ctl | – | – | 54.4 % of Ctl | – |
| O=C(NCCOCCOCCNc1nc(Nc2ccccc2)nc(Nc2ccc(O)cc2)n1)c1cccc(Br)c1 [compound 36] | 30.3 % of Ctl | 81.1 % of Ctl | – | – | – | – | – |
| CC(=O)NCCOCCOCCNc1nc(Nc2ccccc2)nc(Nc2ccc(O)cc2)n1 [compound 41] | 0.3 % of Ctl | 6.6 % of Ctl | – | – | – | – | – |
| N[C@H](Cc1ccccc1)C(=O)NCCOCCNc1nc(Nc2ccc(O)cc2)nc(Nc2ccc(C(=O)NCc3ccccc3)cc2)n1 [compound 133] | 19.4 % of Ctl | – | 12.6 % of Ctl | – | – | 4.3 % of Ctl | – |
| COCCOCCOCCNc1nc(NCCOCCOCCNC(=O)c2ccccc2)nc(Nc2ccc(OCc3ccccc3)cc2)n1 [compound 7] | – | – | 4.8 % of Ctl | – | 22.5 % of Ctl | – | – |
| O=C(NCCOCCOCCNc1nc(Nc2ccc(C(=O)NCc3ccc(F)cc3)cc2)nc(Nc2ccc(O)c(C(=O)O)c2)n1)c1ccccc1 [compound 146] | 70.4 % of Ctl | – | 59.8 % of Ctl | – | – | 28.5 % of Ctl | 44.8 nM |
| O=C(NCCOCCOCCNc1nc(Nc2ccc(O)cc2)nc(Nc2ccc(O)cc2)n1)c1ccccc1 [compound 28] | – | – | 2.4 % of Ctl | – | 56.5 % of Ctl | – | – |
